Assay results taken from US20230256110A1, “COMBINATION OF ANTIBODY-DRUG CONJUGATE AND ATM INHIBITOR” (AstraZeneca UK Limited, priority 2020, published 2023).
Entries after “also recorded” stand apart in the source; their conditions may differ. Structures can show the parent of a compound that is named as a salt.

What was measured:
[1] = system: NCI-N87 tumours implanted subcutaneously; test: NCI-N87 xenograft antitumor test in vivo; design: species or system Female Nude mice; conditions: AZD1390 10 mg/kg PO QD × 28; day 40 post treatment
[2] = system: NCI-N87 cell line; test: Growth inhibition by total cell (nuclear) count, 96-well imaging; format: cell-based; conditions: Homo sapiens; monotherapy; NCI-N87, gastric, HER2 High; 4 to 8 days
Method: (§1) Cells grown in their respective conditions were plated in 96-well plates at optimal density to allow linear proliferation for the duration of the assay (4 to 8 days; duration of treatment is dependent on the growth rate of each cell line). Immediately after plating, the cells were dosed with the indicated compounds for a total volume of 200 μL/well and placed in the incubator. Combinations were conducted as a 6×8 concentration response matrix for each combination. At the endpoint, the cells were fixed in 2% PFA for 20 minutes at room temperature. In order to obtain the number of cells at the start of treatment, one additional plate was used for each experiment and fixed after cells attached. The cells were then permeabilised in 0.5% Triton-X100 in PBS for 10 minutes. After a PBS wash, the cells were blocked in 5% FBS in PBS 1 h at RT and incubated with primary antibodies in 5% FBS+0.05% triton overnight at 4° C. After 3 washes in PBS cells were incubated with secondary antibodies in 5% FBS+0.05% triton with Hoechst33258 for 1 h at room temperature. After 3 washes in PBS, the cells were scanned with a Cellinsight instrument with a 10×objective and 9 fields/well. Images were analysed using Columbus for cell count based on nuclear Hoechst staining and nuclear intensity of other biomarkers investigated. The total cell count/well was used to calculate the relative growth in each well compared to solvent control. […] The mean/well of the sum of the nuclear intensity of the IF biomarkers was also expressed relative to solvent control.

[3] = system: JIMT-1 cell line; test: as above; format: cell-based; conditions: Homo sapiens; monotherapy; JIMT-1, breast, HER2 Expressed; 4 to 8 days
Method: as §1

[4] = system: SK-OV-3 cell line; test: as above; format: cell-based; conditions: Homo sapiens; monotherapy; SK-OV-3, ovarian, HER2 Moderate; 4 to 8 days
Method: as §1

[5] = system: KPL4 cell line; test: as above; format: cell-based; conditions: monotherapy; KPL4, breast, HER2 High; 4 to 8 days
Method: as §1

[6] = system: MDA-MB-468 cell line; test: as above; format: cell-based; conditions: Homo sapiens; monotherapy; MDA-MB-468, breast, HER2 Low; 4 to 8 days
Method: as §1

[7] = system: ATM signaling; test: Inhibition of ATM signaling, antibody blots of whole-cell extracts; format: cell-based
Method: Gastric cancer NCI-N87 and breast carcinoma KPL4 cell lines were cultured in RPMI 1640 supplemented with 10% FCS in a humidified incubator at 37° C. with 5% CO2. Cells were plated in 6-well plates at optimal density to allow linear proliferation for the duration of the assay. […] 7 h, 24 h or 48 h after dosing, whole-cell extracts were obtained by lysis in 50 mM Tris-HCl pH 7.5, 2% SDS containing protease and phosphatase inhibitors. Lysates were boiled for 5 minutes at 95° C. Protein concentration was measured using a Nanodrop at […] and 50 μg of lysate were loaded in 4-12% Bis Tris gels. Proteins were transferred using iblot2. Primary antibodies (see Table 7) were incubated overnight at 4° C. in 3% milk TBS-tween 0.05% and HRP-conjugated secondary antibodies for 1 h at room temperature. Blots were imaged using a G-box.

[8] = system: NCI-N87 cell line; test: High-throughput combination screen, 7-day cell titer-glo cell viability assay; format: cell-based; conditions: within the selected concentration range
Source text: (§2) In addition, trastuzumab and exatecan (DNA topoisomerase I inhibitor) were also screened in parallel with AZD1390.
(§3) • Loewe Dose Additivity predicts the expected response if the two compounds act on the same molecular target by means of the same mechanism. It calculates additivity based on the assumption of zero interaction between the compounds and it is independent from the nature of the dose-response relationship. • HSA (Highest Single Agent) [Berenbaum 1989] quantifies the higher of the two single compound effects at their corresponding concentrations. The combined effect is compared with the effect of each single agent at the concentration used in the combination. Excess over the highest single agent effect indicates cooperativity. […] The predicted values are determined by the chosen model. Differences between the predicted and observed values may indicate synergy or antagonism, and are shown in the Excess Matrix. Excess Matrix values are summarized by the combination scores Excess Volume and Synergy Score.

[9] = system: KPL4 cell line; test: as above; format: cell-based; conditions: within the selected concentration range
Source text: as §2, §3

[10] = system: MDA-MB-468 cell line; test: as above; format: cell-based; conditions: within the selected concentration range
Source text: as §2, §3

[11] = system: T47D cell line; test: as above; format: cell-based; conditions: within the selected concentration range
Source text: as §2, §3

[12] = system: DU145 cell line; test: Growth inhibition by total cell (nuclear) count, 96-well imaging; format: cell-based; conditions: Homo sapiens, DU-145; monotherapy; DU145, prostate, HER2 Low; 4 to 8 days
Method: as §1

[13] = system: DU145-SLFN11 KO (CRISPR-Cas9 gene knockout of SLFN11); test: as above; format: cell-based; conditions: monotherapy, prostate, HER2 Low, 4 to 8 days
Method: as §1

[14] = system: KAP1 pSer824, γH2AX; test: Immunofluorescence biomarkers of ATM activation and DNA damage in KPL4 cells; format: cell-based; conditions: high-HER2 KPL4
Method: Cells grown in their respective conditions were plated in 96-well plates at optimal density to allow linear proliferation for the duration of the assay (4 to 8 days; duration of treatment is dependent on the growth rate of each cell line). Immediately after plating, the cells were dosed with the indicated compounds for a total volume of 200 μL/well and placed in the incubator. Combinations were conducted as a 6×8 concentration response matrix for each combination. At the endpoint, the cells were fixed in 2% PFA for 20 minutes at room temperature. In order to obtain the number of cells at the start of treatment, one additional plate was used for each experiment and fixed after cells attached. The cells were then permeabilised in 0.5% Triton-X100 in PBS for 10 minutes. After a PBS wash, the cells were blocked in 5% FBS in PBS 1 h at RT and incubated with primary antibodies in 5% FBS+0.05% triton overnight at 4° C. After 3 washes in PBS cells were incubated with secondary antibodies in 5% FBS+0.05% triton with Hoechst33258 for 1 h at room temperature. After 3 washes in PBS, the cells were scanned with a Cellinsight instrument with a 10×objective and 9 fields/well. Images were analysed using Columbus for cell count based on nuclear Hoechst staining and nuclear intensity of other biomarkers investigated. […]

[15] = NCI-N87 and KPL4, AZD1390 at 100 nM combined with DS-8201 or exatecan mesylate

Row | SMILES | Best response % TGI/regression [1] [%] | GI50 [2] [nM] | GI50 [3] [nM] | GI50 [4] [nM] | GI50 [5] [nM] | GI50 [6] [nM] | DNA damage (pRPA, gH2AX) [7, 15] | activation of pATM, pChk2, and pKAP1 [7, 15] | cell death (cCasp3) [7, 15] | Single agent activity (cell viability) [8] | Single agent activity (cell viability) [9] | Single agent activity (cell viability) [10] | Single agent activity (cell viability) [11] | GI50 [12] [nM] | GI50 [13] [nM] | activation of the ATM pathway (pATM-S1981, pChk2-T68, pKap1-S824) ([7]; Her2-high NCI-N87 and KPL4, DS-8201 at 30 μg/mL or exatecan mesylate alone) | biomarkers of ATM (KAP1 pSer824) activation and DNA strand breaks (yH2AX) [14]
1 | CC(C)n1c(=O)n(C)c2cnc3cc(F)c(-c4ccc(OCCCN5CCCCC5)nc4)cc3c21 [AZD1390, 7-fluoro-1-isopropyl-3-methyl-8-[6-[3-(1-piperidyl)propoxy]-3-pyridyl]imidazo[4,5-c]quinolin-2-one] | 37 | > 100 | > 100 | > 100 | > 100 | > 100 | exacerbating the DNA damage | inhibited the activation of pATM, pChk2, and pKAP1; also recorded: inhibits DS-8201-induced ATM signaling | increased cell death | not active | not active | not active | not active | – | – | – | –
2 | CC[C@@]1(O)C(=O)OCc2c1cc1n(c2=O)Cc2c-1nc1cc(F)c(C)c3c1c2[C@@H](N)CC3 [Exatecan mesylate, (1S,9S)-1-amino-9-ethyl-5-fluoro-1,2,3,9,12,15-hexahydro-9-hydroxy-4-methyl-10H,13H-benzo[de]pyrano[3′,4′:6,7]indolizino[1,2-b]quinolin-10,13-dione, reference compound] | – | 0.503 | 0.745 | 0.914 | 1.18 | 0.162 | – | – | – | – | – | – | – | 0.564 | 0.45 | induced activation of the ATM pathway | induced in a concentration dependent manner
